The results in this text go back to patent publication US20240109930A1, “TRIAZOLYL-METHYL SUBSTITUTED ALPHA-D-GALACTOPYRANOSIDE DERIVATIVES” (Idorsia Pharmaceuticals Ltd, priority 2021, published 2024).

pIC50: −log10 of the molar value.

One experiment concerns the target human Gal-3 (hGal-3) (Homo sapiens (Human), UniProt P17931). Kind of experiment: Competitive binding assay: biotinylated hGal-3 binding to microplate-adsorbed asialofetuin (ASF). The note with it: IC50 values from several measurements given as geomean. The gist of the method:
(§1)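 Biotinylated hGal-3 or hGal-1 (preferably cysteine-free Cys→Ser mutant), 300–1000 ng/mL, competes with compound for ASF-coated wells for 3 h at 4 °C. Bound lectin detected with streptavidin-peroxidase (80 ng/mL, 1 h, 4 °C) and ABTS by absorbance; IC50 reported as geomean of several runs.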

In a further experiment the target is human Gal-1 (hGal-1) (Homo sapiens, UniProt P09382, C131S/C17S/C43S/C61S/C89S). The experiment in a line: Competitive binding assay: biotinylated hGal-1 binding to microplate-adsorbed asialofetuin (ASF). Particulars: IC50 values from several measurements given as geomean. The gist of the method:
as §1

Sequence of human Gal-3 (hGal-3) (P17931 whole entry): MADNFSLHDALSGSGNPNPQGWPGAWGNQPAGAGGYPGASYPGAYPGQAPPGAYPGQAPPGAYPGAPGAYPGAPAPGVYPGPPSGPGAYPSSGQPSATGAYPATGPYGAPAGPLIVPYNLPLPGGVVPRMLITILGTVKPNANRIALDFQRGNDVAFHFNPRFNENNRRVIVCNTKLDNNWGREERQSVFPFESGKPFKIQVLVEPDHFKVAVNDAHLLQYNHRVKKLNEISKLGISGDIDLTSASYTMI

For orientation: pIC50 means the negative decadic logarithm of the IC50, by convention in mol/L. Low values mean a large IC50, high ones a small IC50. Take `CO[C@@H]1[C@@H](n2cc(-c3ccc(Cl)c(F)c3F)nn2)[C@@H](O)[C@@H](CO)O[C@@H]1Cc1cn(C23COC(C)(C2)C3)nn1` [Ex 2.1.59., (2R,3R,4S,5R,6R)-4-(4-(4-chloro-2,3-difluorophenyl)-1H-1,2,3-triazol-1-yl)-2-(hydroxymethyl)-5-methoxy-6-((1-(1-methyl-2-oxabicyclo[2.1.1]hexan-4-yl)-1H-1,2,3-triazol-4-yl)methyl)tetrahydro-2H-pyran-3-ol]: the pIC50 on human Gal-3 (hGal-3) was 7.30; on human Gal-1 (hGal-1), 5.63.
With `CO[C@@H]1[C@@H](n2cc(-c3ccc(Cl)c(F)c3F)nn2)[C@@H](O)[C@@H](CO)O[C@@H]1Cc1cn(C23CCOC(C)(C2)C3)nn1` [Ex 2.1.62., (2R,3R,4S,5R,6R)-4-(4-(4-chloro-2,3-difluorophenyl)-1H-1,2,3-triazol-1-yl)-2-(hydroxymethyl)-5-methoxy-6-((1-(1-methyl-2-oxabicyclo[3.1.1]heptan-5-yl)-1H-1,2,3-triazol-4-yl)methyl)tetrahydro-2H-pyran-3-ol], the pIC50 was 7.52 on human Gal-3 (hGal-3) and 5.92 at human Gal-1 (hGal-1).
The corresponding values for `CO[C@@H]1[C@@H](n2cc(-c3ccc(Cl)c(F)c3F)nn2)[C@@H](O)[C@@H](CO)O[C@@H]1Cc1cn(C2(C(F)(F)F)CCCC2)nn1` [Ex 2.1.67.] are 7.40 and 5.99.
In the case of `CO[C@@H]1[C@@H](n2cc(-c3ccc(Cl)c(F)c3F)nn2)[C@@H](O)[C@@H](CO)O[C@@H]1Cc1cn([C@@]2(C(F)(F)F)C[C@H]3C[C@H]3C2)nn1` [Ex 2.1.69.], the pIC50 was 7.40 at human Gal-3 (hGal-3) and 6.33 on human Gal-1 (hGal-1).
With `CO[C@@H]1[C@@H](n2cc(-c3ccc(Cl)c(F)c3F)nn2)[C@@H](O)[C@@H](CO)O[C@@H]1Cc1cn(C2(C(F)(F)F)CC3CCC2C3)nn1` (some centres unmarked) [Ex 2.1.70.], the pIC50 on human Gal-3 (hGal-3) is 7.30; at human Gal-1 (hGal-1) it was 6.08.
Turning to `CO[C@@H]1[C@@H](n2cc(-c3ccc(Cl)c(F)c3F)nn2)[C@@H](O)[C@@H](CO)O[C@@H]1Cc1cn(C2(C(F)(F)F)CCC(F)(F)CC2)nn1` [Ex 2.1.71., (2R,3R,4S,5R,6R)-4-(4-(4-chloro-2,3-difluorophenyl)-1H-1,2,3-triazol-1-yl)-6-((1-(4,4-difluoro-1-(trifluoromethyl)cyclohexyl)-1H-1,2,3-triazol-4-yl)methyl)-2-(hydroxymethyl)-5-methoxytetrahydro-2H-pyran-3-ol], the pIC50 at human Gal-3 (hGal-3) is 7.30; at human Gal-1 (hGal-1), 6.17.
With `CO[C@@H]1[C@@H](n2cc(-c3ccc(Cl)c(F)c3F)nn2)[C@@H](O)[C@@H](CO)O[C@@H]1Cc1cn(C2(C(F)(F)F)CCOCC2)nn1` [Ex 2.1.72., (2R,3R,4S,5R,6R)-4-(4-(4-chloro-2,3-difluorophenyl)-1H-1,2,3-triazol-1-yl)-2-(hydroxymethyl)-5-methoxy-6-((1-(4-(trifluoromethyl)tetrahydro-2H-pyran-4-yl)-1H-1,2,3-triazol-4-yl)methyl)tetrahydro-2H-pyran-3-ol], the pIC50 at human Gal-3 (hGal-3) is 7.30; on human Gal-1 (hGal-1), 6.32.
With `CO[C@@H]1[C@@H](n2cc(-c3ccc(Cl)c(F)c3F)nn2)[C@@H](O)[C@@H](CO)O[C@@H]1Cc1cn(C2CC23CC3(F)F)nn1` (stereo partly drawn) [Ex 2.1.75., (2R,3R,4S,5R,6R)-4-(4-(4-chloro-2,3-difluorophenyl)-1H-1,2,3-triazol-1-yl)-6-((1-(4,4-difluorospiro[2.2]pentan-1-yl)-1H-1,2,3-triazol-4-yl)methyl)-2-(hydroxymethyl)-5-methoxytetrahydro-2H-pyran-3-ol], the pIC50 on human Gal-3 (hGal-3) was 7.30; on human Gal-1 (hGal-1) it was 5.56.
Regarding `CO[C@@H]1[C@@H](n2cc(-c3ccc(Cl)c(F)c3F)nn2)[C@@H](O)[C@@H](CO)O[C@@H]1Cc1cn(C2(CF)CC2(F)F)nn1` (stereo partly drawn) [Ex 2.1.76., (2R,3R,4S,5R,6R)-4-(4-(4-chloro-2,3-difluorophenyl)-1H-1,2,3-triazol-1-yl)-6-((1-(2,2-difluoro-1-(fluoromethyl)cyclopropyl)-1H-1,2,3-triazol-4-yl)methyl)-2-(hydroxymethyl)-5-methoxytetrahydro-2H-pyran-3-ol], the values for the pIC50 on human Gal-3 (hGal-3) and at human Gal-1 (hGal-1) were 7.70 and 6.09, respectively.
In the case of `CO[C@@H]1[C@@H](n2cc(-c3ccc(Cl)c(F)c3F)nn2)[C@@H](O)[C@@H](CO)O[C@@H]1Cn1cc(C2(CO)CC2)nn1` [Ex 2.2.4.], the pIC50 on human Gal-3 (hGal-3) was 7.30; at human Gal-1 (hGal-1) it was 5.83.
Take `CO[C@@H]1[C@@H](n2cc(-c3ccc(Cl)c(F)c3F)nn2)[C@@H](O)[C@@H](CO)O[C@@H]1Cn1cc(C2(C)COC2)nn1` [Ex 2.2.6.]: the pIC50 on human Gal-3 (hGal-3) was 7.52; on human Gal-1 (hGal-1) it was 5.93.
`CO[C@@H]1[C@@H](n2cc(-c3ccc(Cl)c(F)c3F)nn2)[C@@H](O)[C@@H](CO)O[C@@H]1Cn1cc(C23CC(C2)C3)nn1` [Ex 2.2.12.]: the pIC50 at human Gal-3 (hGal-3) is 7.30; at human Gal-1 (hGal-1) it was 5.47.
`CO[C@@H]1[C@@H](n2cc(-c3ccc(Cl)c(F)c3F)nn2)[C@@H](O)[C@@H](CO)O[C@@H]1Cn1cc(C2(C)CCC2)nn1` [Ex 2.2.13.]: the pIC50 on human Gal-3 (hGal-3) was 7.52; on human Gal-1 (hGal-1) it was 5.82.
As to `CO[C@@H]1[C@@H](n2cc(-c3ccc(Cl)c(F)c3F)nn2)[C@@H](O)[C@@H](CO)O[C@@H]1Cn1cc(C2(C)CC2)nn1` [Ex 2.2.23.], the pIC50 is 7.22 on human Gal-3 (hGal-3) and 5.77 at human Gal-1 (hGal-1).
On to `CO[C@@H]1[C@@H](n2cc(-c3ccc(Cl)c(F)c3F)nn2)[C@@H](O)[C@@H](CO)O[C@@H]1Cn1cc(C2(O)CCC2)nn1` [Ex 2.2.31.], for which the figures for the pIC50 on human Gal-3 (hGal-3) and at human Gal-1 (hGal-1) were 7.05 and 5.58, respectively.
The corresponding values for `CO[C@@H]1[C@@H](n2cc(-c3ccc(Cl)c(F)c3F)nn2)[C@@H](O)[C@@H](CO)O[C@@H]1Cn1cc(C2CCCC2)nn1` [Ex 2.2.32.] are 7.30 and 5.42.
With `CO[C@@H]1[C@@H](n2cc(-c3ccc(Cl)c(F)c3F)nn2)[C@@H](O)[C@@H](CO)O[C@@H]1Cn1cc(C2(O)CCCC2)nn1` [Ex 2.2.33.], the results for the pIC50 on human Gal-3 (hGal-3) and at human Gal-1 (hGal-1) were 7.10 and 5.32, respectively.
The corresponding values for `CO[C@@H]1[C@@H](n2cc(-c3ccc(Cl)c(F)c3F)nn2)[C@@H](O)[C@@H](CO)O[C@@H]1Cn1cc(C(C)(C)O)nn1` [Ex 2.2.34.] are 7.15 and 5.29.
As to `CO[C@@H]1[C@@H](n2cc(-c3ccc(Cl)c(F)c3F)nn2)[C@@H](O)[C@@H](CO)O[C@@H]1Cn1cc(C2(O)CCOCC2)nn1` [Ex 2.2.35.], the values for the pIC50 on human Gal-3 (hGal-3) and at human Gal-1 (hGal-1) were 7.22 and 5.41, respectively.
Consider `CO[C@@H]1[C@@H](n2cc(-c3ccc(Cl)c(F)c3F)nn2)[C@@H](O)[C@@H](CO)O[C@@H]1Cn1cc(C2(O)CC2)nn1` [Ex 2.2.36.], for which the pIC50 is 7.05 on human Gal-3 (hGal-3) and 5.50 on human Gal-1 (hGal-1).
On to `COC1=C(N2CC(c3ccc(Cl)c(F)c3F)NN2)C(O)=C(CO)O[C@@H]1Cn1cc(C23CCC(NC(=O)OC(C)(C)C)(CC2)CC3)nn1` (some centres unmarked) [Ex 2.2.37.], for which the pIC50 was 7.15 at human Gal-3 (hGal-3) and 4.88 on human Gal-1 (hGal-1).
For `CO[C@@H]1[C@@H](n2cc(-c3ccc(Cl)c(F)c3F)nn2)[C@@H](O)[C@@H](CO)O[C@@H]1Cc1cn(C23CCC(N)(CC2)CC3)nn1` [Ex 2.2.39.], the pIC50 is 7.15 at human Gal-3 (hGal-3) and 5.22 on human Gal-1 (hGal-1).
The corresponding values for `CO[C@@H]1[C@@H](n2cc(-c3ccc(Cl)c(F)c3F)nn2)[C@@H](O)[C@@H](CO)O[C@@H]1Cn1cc(C2(C(F)F)CC2)nn1` [Ex 2.2.51.] are 7.22 and 5.59.
The corresponding values for `CO[C@@H]1[C@@H](n2cc(-c3ccc(Cl)c(F)c3F)nn2)[C@@H](O)[C@@H](CO)O[C@@H]1Cn1cc(C2(C(F)(F)F)CC2)nn1` [Ex 2.2.54.] are 7.15 and 5.61.
Take `CO[C@@H]1[C@@H](n2cc(-c3ccc(Cl)c(F)c3F)nn2)[C@@H](O)[C@@H](CO)O[C@@H]1Cn1cc(C2CC(F)(F)C2)nn1` [Ex 2.2.83.]: the pIC50 on human Gal-3 (hGal-3) is 6.80; at human Gal-1 (hGal-1) it was 5.06.
The corresponding values for `CO[C@@H]1[C@@H](n2cc(-c3ccc(Cl)c(F)c3F)nn2)[C@@H](O)[C@@H](CO)O[C@@H]1Cn1cc(C2CC3(C2)CC(F)(F)C3)nn1` [Ex 2.2.84.] are 6.62 and 4.96.
For the compound `CO[C@@H]1[C@@H](n2cc(-c3ccc(Cl)c(F)c3F)nn2)[C@@H](O)[C@@H](CO)O[C@@H]1Cn1cc(C2(O)CC(F)(F)C2)nn1` [Ex 2.2.85.], the figures for the pIC50 on human Gal-3 (hGal-3) and at human Gal-1 (hGal-1) were 6.77 and 5.27, respectively.
For the compound `CO[C@@H]1[C@@H](n2cc(-c3ccc(Cl)c(F)c3F)nn2)[C@@H](O)[C@@H](CO)O[C@@H]1Cn1cc([C@H]2C[C@@H](N)C2)nn1` [Ex 2.2.87.], the values for the pIC50 on human Gal-3 (hGal-3) and on human Gal-1 (hGal-1) were 6.92 and 5.15, respectively.
Take `CO[C@@H]1[C@@H](n2cc(-c3ccc(F)c(F)c3F)nn2)[C@@H](O)[C@@H](CO)O[C@@H]1Cc1cn(C2(CO)CC2)nn1` [Ex 3.1.4.]: the results for the pIC50 at human Gal-3 (hGal-3) and on human Gal-1 (hGal-1) were 7.22 and 6.09, respectively.
On to `CO[C@@H]1[C@@H](n2cc(-c3ccc(F)c(F)c3F)nn2)[C@@H](O)[C@@H](CO)O[C@@H]1Cc1cn(C2(CO)CCCC2)nn1` [Ex 3.1.5.], for which the results for the pIC50 on human Gal-3 (hGal-3) and at human Gal-1 (hGal-1) were 7.22 and 6.22, respectively.
The corresponding values for `CO[C@@H]1[C@@H](n2cc(-c3ccc(F)c(F)c3F)nn2)[C@@H](O)[C@@H](CO)O[C@@H]1Cc1cn(C2(C)COC2)nn1` [Ex 3.1.6., (2R,3R,4S,5R,6R)-2-(hydroxymethyl)-5-methoxy-6-((1-(3-methyloxetan-3-yl)-1H-1,2,3-triazol-4-yl)methyl)-4-(4-(2,3,4-trifluorophenyl)-1H-1,2,3-triazol-1-yl)tetrahydro-2H-pyran-3-ol] are 7.30 and 6.72.
